According to US20240270751A1, “Pyrazolopyridinone Compounds” (BeiGene Ltd., priority 2021, published 2024):

What was measured:
[1] = target: DGKζ (Homo sapiens (Human), UniProt Q13574); experiment: Biochemical DGK IC50 assay, DGKζ ADP-Glo assay; conditions: 0.5 nM enzyme, 140 μM ATP, 80 μM DAG; read-out: DGKζ ADP-Glo assay IC50
How it was run: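 Full-length human DGKζ, His-TEV tagged and purified from baculovirus-infected Sf9 cells, assayed by ADP-Glo with DAG/PS lipid micelle substrate prepared in 25 mM HEPES pH 7.0 with octyl glucoside. Final compound concentrations spanned 1.55–10000 nM or 23.3–150000 nM.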

[2] = target: DGKα (Homo sapiens (Human), UniProt P23743); experiment: Biochemical DGK IC50 assay, DGKα ADP-Glo assay; conditions: 7.5 nM enzyme, 140 μM ATP, 80 μM DAG
How it was run: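 ADP-Glo read-out with full-length DGKα on DAG/PS lipid micelle substrate in 25 mM HEPES pH 7.0, 0.5 mM EDTA, 160 mM octyl β-D-glucopyranoside. Compound final concentrations spanned 1.55˜10000 nM or 23.3˜150000 nM.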

Sequence of DGKα (P23743 whole entry): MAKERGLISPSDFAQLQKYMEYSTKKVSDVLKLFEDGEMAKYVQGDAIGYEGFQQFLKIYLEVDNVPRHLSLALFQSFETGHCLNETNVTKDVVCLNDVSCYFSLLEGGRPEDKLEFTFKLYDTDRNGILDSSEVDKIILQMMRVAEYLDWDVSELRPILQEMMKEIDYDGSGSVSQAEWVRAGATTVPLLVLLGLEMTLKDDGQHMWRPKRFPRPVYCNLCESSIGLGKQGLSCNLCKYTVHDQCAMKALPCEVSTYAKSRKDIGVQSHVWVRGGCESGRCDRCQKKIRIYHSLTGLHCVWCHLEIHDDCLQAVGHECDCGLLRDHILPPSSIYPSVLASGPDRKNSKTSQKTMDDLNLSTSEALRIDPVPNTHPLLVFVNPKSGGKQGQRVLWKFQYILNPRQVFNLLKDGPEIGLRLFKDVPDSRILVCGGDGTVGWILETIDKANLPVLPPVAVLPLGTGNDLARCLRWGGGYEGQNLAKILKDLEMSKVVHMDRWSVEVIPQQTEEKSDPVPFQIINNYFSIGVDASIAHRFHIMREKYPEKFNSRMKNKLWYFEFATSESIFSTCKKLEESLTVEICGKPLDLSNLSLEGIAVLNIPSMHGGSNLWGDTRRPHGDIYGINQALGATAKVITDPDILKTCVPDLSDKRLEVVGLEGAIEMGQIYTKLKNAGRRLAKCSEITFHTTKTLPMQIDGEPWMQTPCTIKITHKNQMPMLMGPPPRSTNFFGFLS
Sequence of DGKζ (Q13574 other isoform, or with tags, fused parts or gaps): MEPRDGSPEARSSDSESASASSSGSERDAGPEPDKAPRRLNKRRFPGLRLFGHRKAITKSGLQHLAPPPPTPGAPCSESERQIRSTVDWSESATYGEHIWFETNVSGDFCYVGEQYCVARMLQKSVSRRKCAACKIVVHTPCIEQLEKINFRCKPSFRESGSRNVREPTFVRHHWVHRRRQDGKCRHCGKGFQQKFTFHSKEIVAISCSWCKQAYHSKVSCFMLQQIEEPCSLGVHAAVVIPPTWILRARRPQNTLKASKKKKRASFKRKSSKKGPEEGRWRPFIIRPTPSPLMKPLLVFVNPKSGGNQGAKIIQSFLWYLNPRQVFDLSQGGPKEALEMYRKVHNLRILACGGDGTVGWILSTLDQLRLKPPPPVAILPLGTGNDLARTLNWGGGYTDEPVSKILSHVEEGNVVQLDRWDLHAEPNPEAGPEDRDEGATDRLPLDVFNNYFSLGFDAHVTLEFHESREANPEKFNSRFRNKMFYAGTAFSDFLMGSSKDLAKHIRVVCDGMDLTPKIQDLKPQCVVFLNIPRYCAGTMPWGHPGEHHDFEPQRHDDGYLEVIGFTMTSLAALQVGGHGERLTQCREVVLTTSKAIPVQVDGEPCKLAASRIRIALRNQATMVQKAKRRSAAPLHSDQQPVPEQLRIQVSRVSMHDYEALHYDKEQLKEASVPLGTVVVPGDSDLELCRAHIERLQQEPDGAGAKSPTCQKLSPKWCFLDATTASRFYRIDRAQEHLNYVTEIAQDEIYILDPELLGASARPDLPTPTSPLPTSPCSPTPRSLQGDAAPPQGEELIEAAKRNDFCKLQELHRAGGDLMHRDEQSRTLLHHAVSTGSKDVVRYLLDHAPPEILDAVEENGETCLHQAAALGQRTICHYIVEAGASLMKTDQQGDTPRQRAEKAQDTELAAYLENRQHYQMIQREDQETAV

SMILES | IC50 [1] [nM] | IC50 [2] [nM]
CC(c1ccc2nccnc2c1)N1C[C@H](C)N(c2cc(=O)[nH]c3cn(CC#N)nc23)C[C@H]1C (single isomer, unassigned) [Compound A260, 2-(7-((2S,5R)-2,5-dimethyl-4-((R)-1-(quinoxalin-6-yl)ethyl)piperazin-1-yl)-5-oxo-4,5-dihydro-2H-pyrazolo[4,3-b]pyridin-2-yl)acetonitrile, or 2-(7-((2S,5R)-2,5-dimethyl-4-((S)-1-(quinoxalin-6-yl)ethyl)piperazin-1-yl)-5-oxo-4,5-dihydro-2H-pyrazolo[4,3-b]pyridin-2-yl)acetonitrile] | 394 | > 10000
CC[C@@H]1CN(c2c(Br)c(=O)n(C)c3cn(CC#N)nc23)CCN1C(C)c1ccc2nccnc2c1 (single isomer, unassigned) [Compound A179b] | > 10000 | > 10000
CC[C@H]1CN(C(C)c2ccc(F)cc2C(=O)N(C)C)[C@H](CC)CN1c1cc(=O)n(C)c2cn(CC#N)nc12 (stereo partly drawn) [Compound A292] | 1910 | > 150000
Cc1cnc2ccc([C@H](C)N3C[C@H](C)N(c4cc(=O)n(C)c5cn(CC=C(F)F)nc45)C[C@H]3C)cc2n1 [Compound A303, 2-(3,3-difluoroallyl)-7-((2S,5R)-2,5-dimethyl-4-((S)-1-(3-methylquinoxalin-6-yl)ethyl)piperazin-1-yl)-4-methyl-2,4-dihydro-5H-pyrazolo[4,3-b]pyridin-5-one] | 19 | 102000
CC[C@H]1CN(C(C)c2ccc3c(n2)OCC3)[C@H](CC)CN1c1cc(=O)n(C)c2cn(CC#N)nc12 (stereo partly drawn) [Compound A337, 2-(7-((2S,5R)-4-(1-(2,3-dihydrofuro[2,3-b]pyridin-6-yl)ethyl)-2,5-diethylpiperazin-1-yl)-4-methyl-5-oxo-4,5-dihydro-2H-pyrazolo[4,3-b]pyridin-2-yl)acetonitrile] | 283 | 203
CC[C@H]1CN(C(C)c2ccc(F)cc2C(F)(F)F)[C@H](CC)CN1c1cc(=O)n(C)c2c[nH]nc12 (single isomer, unassigned) [Compound A275a] | 7110 | > 10000
CC[C@H]1CN(C(C)c2ccc(OC(C)C)cc2)[C@H](CC)CN1c1cc(=O)n(C)c2cn(CC#N)nc12 (stereo partly drawn) [Compound A160] | 247 | 52
COc1cnc2cc(C(C)N3C[C@H](C)N(c4cc(=O)n(C)c5cn(CC#N)nc45)C[C@H]3C)ccc2n1 (stereo partly drawn) [Compound A283, 2-(7-((2S,5R)-4-(1-(2-methoxyquinoxalin-6-yl)ethyl)-2,5-dimethylpiperazin-1-yl)-4-methyl-5-oxo-4,5-dihydro-2H-pyrazolo[4,3-b]pyridin-2-yl)acetonitrile] | 881 | 12400
CC[C@H]1CN(C(C)c2ccc(C(F)F)cn2)[C@H](CC)CN1c1cc(=O)n(C)c2cn(CC#N)nc12 (single isomer, unassigned) [Compound A347b] | 223 | 8
CC(c1ccc2nccnc2c1)N1C[C@H](C)N(c2cc(=O)n(C)c3cn(C(=O)C4CC4)nc23)C[C@H]1C (stereo partly drawn) [Compound A15] | 34000 | 5900
CC[C@H]1CN(C(C)c2cn(C)nc2C(F)(F)F)[C@H](CC)CN1c1cc(=O)n(C)c2cn(CC#N)nc12 (stereo partly drawn) [Compound A232, 2-(7-((2S,5R)-2,5-diethyl-4-(1-(1-methyl-3-(trifluoromethyl)-1H-pyrazol-4-yl)ethyl)piperazin-1-yl)-4-methyl-5-oxo-4,5-dihydro-2H-pyrazolo[4,3-b]pyridin-2-yl)acetonitrile] | 3110 | 8490
COCCn1cc2c(n1)c(N1C[C@@H](C)N(C(C)c3ccc4nccnc4c3)C[C@@H]1C)cc(=O)n2C (stereo partly drawn) [Compound A5] | 3500 | 21000
CC(c1ccc2c(n1)OC(C)(C)CO2)N1C[C@H](C)N(c2cc(=O)n(C)c3cn(CC#N)nc23)C[C@H]1C (stereo partly drawn) [Compound A325, 2-(7-((2S,5R)-4-(1-(3,3-dimethyl-2,3-dihydro-[1,4]dioxino[2,3-b]pyridin-6-yl)ethyl)-2,5-dimethylpiperazin-1-yl)-4-methyl-5-oxo-4,5-dihydro-2H-pyrazolo[4,3-b]pyridin-2-yl)acetonitrile] | 89 | 103000
CC[C@@H]1CN(c2cc(=O)n(C)c3cn(CC#N)nc23)[C@@H](CO)CN1C(C)c1ccc2nccnc2c1 (stereo partly drawn) [Compound A229, 2-(7-((2R,5R)-5-ethyl-2-(hydroxymethyl)-4-(1-(quinoxalin-6-yl)ethyl)piperazin-1-yl)-4-methyl-5-oxo-4,5-dihydro-2H-pyrazolo[4,3-b]pyridin-2-yl)acetonitrile] | 166 | 24100
CC[C@H]1CN(C(C)c2cncn2CC(F)F)[C@H](CC)CN1c1cc(=O)n(C)c2cn(CC#N)nc12 (stereo partly drawn) [Compound A237] | 1350 | > 10000
CC[C@H]1CN(C(C)c2ccc(OC(F)(F)F)cc2)[C@H](CC)CN1c1cc(=O)n(C)c2cn(CC#N)nc12 (stereo partly drawn) [Compound A122] | 635 | 10.5
C[C@@H]1CN(c2cc(=O)n(C)c3c(C(F)(F)F)nn(CC#N)c23)[C@@H](C)CN1[C@@H](C)c1ccc2nccnc2c1 (single isomer, unassigned) [Compound A244, 2-(7-((2S,5R)-2,5-dimethyl-4-((S)-1-(quinoxalin-6-yl)ethyl)piperazin-1-yl)-4-methyl-5-oxo-3-(trifluoromethyl)-4,5-dihydro-1H-pyrazolo[4,3-b]pyridin-1-yl)acetonitrile or 2-(7-((2S,5R)-2,5-dimethyl-4-((R)-1-(quinoxalin-6-yl)ethyl)piperazin-1-yl)-4-methyl-5-oxo-3-(trifluoromethyl)-4,5-dihydro-1H-pyrazolo[4,3-b]pyridin-1-yl)acetonitrile] | > 10000 | > 10000
CC[C@H]1CN(C(C)c2ccc3nccnc3c2)[C@H](CC)CN1c1cc(=O)n(C)c2cn(CC#N)nc12 (single isomer, unassigned) [Compound A28a] | 7.6 | 490
CC(c1ccc(F)cc1C(F)(F)F)N1C[C@H](C)N(c2cc(=O)n(C)c3cn(CC#N)nc23)C[C@H]1C (single isomer, unassigned) [Compound A236a] | > 10000 | > 10000
C[C@@H]1CN(c2cc(=O)n(C)c3c(Cl)n(CC#N)nc23)[C@@H](C)CN1[C@H](C)c1ccc2nccnc2c1 [Compound A263, 2-(3-chloro-7-((2S,5R)-2,5-dimethyl-4-((R)-1-(quinoxalin-6-yl)ethyl)piperazin-1-yl)-4-methyl-5-oxo-4,5-dihydro-2H-pyrazolo[4,3-b]pyridin-2-yl)acetonitrile, or 2-(3-chloro-7-((2S,5R)-2,5-dimethyl-4-((S)-1-(quinoxalin-6-yl)ethyl)piperazin-1-yl)-4-methyl-5-oxo-4,5-dihydro-2H-pyrazolo[4,3-b]pyridin-2-yl)acetonitrile] | 85 | 41800
Cc1ccc2ccc(C(C)N3C[C@H](C)N(c4cc(=O)n(C)c5cn(CC#N)nc45)C[C@H]3C)cc2n1 (stereo partly drawn) [Compound A306] | 495 | 18200
CC[C@@H]1CN(c2cc(=O)n(C)c3cn(CC#N)nc23)[C@@H](CC)CN1C(=O)c1cc2cnccc2cn1 [Compound A371] | > 10000 | 717
CC[C@H]1CN(C(C)c2nc3cc(C(F)(F)F)ccc3n2CC)[C@H](CC)CN1c1cc(=O)n(C)c2cn(CC#N)nc12 (single isomer, unassigned) [Compound A203b] | 233 | > 10000
CC[C@H]1CN(C(C)c2ccc3nccnc3c2)[C@H](CC)CN1c1cc(=O)n(CC(F)F)c2cn(CC#N)nc12 (single isomer, unassigned) [Compound A139a] | 112 | > 10000
CC[C@H]1CN(C(C)c2ccc3nccnc3c2)[C@H](CC)CN1c1cc(=O)n(CC(F)(F)F)c2cn(CC#N)nc12 (stereo partly drawn) [Compound A123, 2-(7-((2S,5R)-2,5-diethyl-4-(1-(quinoxalin-6-yl)ethyl)piperazin-1-yl)-5-oxo-4-(2,2,2-trifluoroethyl)-4,5-dihydro-2H-pyrazolo[4,3-b]pyridin-2-yl)acetonitrile] | 1740 | 6030
CC[C@H]1CN(C(C)c2ccc(OC)cc2)[C@H](CC)CN1c1cc(=O)n(C)c2cn(CC#N)nc12 (stereo partly drawn) [Compound A377] | 173 | 94
CC#CCn1cc2c(n1)c(N1C[C@@H](C)N(C(C)c3ccc4ncc(C(F)F)nc4c3)C[C@@H]1C)cc(=O)n2C (stereo partly drawn) [Compound A335, 2-(but-2-yn-1-yl)-7-((2S,5R)-4-(1-(3-(difluoromethyl)quinoxalin-6-yl)ethyl)-2,5-dimethylpiperazin-1-yl)-4-methyl-2,4-dihydro-5H-pyrazolo[4,3-b]pyridin-5-one] | 142 | 610
CC(c1ccc2nccnc2c1)N1CCN(c2cc(=O)n(C)c3cn(CC#N)nc23)C[C@@H]1C (stereo partly drawn) [Compound A178] | 6900 | > 10000
CC(c1ccc2nccnc2c1)N1C[C@H](C)N(c2nc(=O)n(C)c3cn(CC#N)nc23)C[C@H]1C (stereo partly drawn) [Compound A154, 2-(7-((2S,5R)-2,5-dimethyl-4-(1-(quinoxalin-6-yl)ethyl)piperazin-1-yl)-4-methyl-5-oxo-4,5-dihydro-2H-pyrazolo[4,3-d]pyrimidin-2-yl)acetonitrile] | 104 | 9210
CC(c1ccc2ncc(CO)nc2c1)N1C[C@H](C)N(c2cc(=O)n(C)c3cn(CC#N)nc23)C[C@H]1C (single isomer, unassigned) [Compound A309a] | > 10000 | 118000
